Measured values from ChEMBL document CHEMBL1125915, “Novel alkaloids from the tropical plant Ancistrocladus abbreviatus inhibit cell killing by HIV-1 and HIV-2” (J Med Chem, 1991).

Legend:
[1] = system: CEM-SS; assay: Compound tested for inhibition of the cytopathic effects of HIV-1 upon CEM-SShuman lymphoblastoid target cells in vitro; type: functional, cell-based; details: Homo sapiens
[2] = system: CEM-SS; assay: Compound tested for cytotoxic effect on uninfected CEM-SS human lymphoblastoid target cell; type: functional, cell-based
[3] = system: CEM-SS; assay: Compound tested for inhibition of P24 (P24 antigen) in HIV-infected CEM-SS cells; Inhibited; type: functional, cell-based; details: Homo sapiens
[4] = system: CEM-SS; assay: Compound tested for inhibition of syncytium-forming units (SFU) in HIV-infected CEM-SS cells; Inhibited; type: functional, cell-based; details: Homo sapiens
[5] = target: Human immunodeficiency virus type 1 reverse transcriptase (Human immunodeficiency virus 1) (UniProt Q72547); assay: Compound tested for inhibition of RT (reverse transcriptase) in HIV-infected CEM-SS cells; Inhibited; type: cell-based

Compound	EC50 [1]	IC50 [2]	inhibition [3]	inhibition [4]	inhibition [5]
COc1cc(C)cc2c(-c3c(O)cc(O)c4c3C[C@H](C)N[C@H]4C)cc(-c3cc(-c4c(O)cc(O)c5c4C[C@H](C)N[C@H]5C)c4cc(C)cc(OC)c4c3O)c(O)c12 (stereo in doubt; 1) [listing 1 of 2 here]	20 µM	200 µM	–	–	–
COc1cc(C)cc2c(-c3c(O)cc(O)c4c3C[C@H](C)N[C@H]4C)cc(-c3cc(-c4c(O)cc(O)c5c4C[C@H](C)N[C@H]5C)c4cc(C)cc(OC)c4c3O)c(O)c12 (stereo in doubt; 2)	–	–	Inhibited	Inhibited	Inhibited
COc1cc(C)cc2c(-c3c(O)cc(O)c4c3C[C@H](C)N[C@H]4C)cc(-c3cc(-c4c(O)cc(O)c5c4C[C@H](C)N[C@H]5C)c4cc(C)cc(OC)c4c3O)c(O)c12 (stereo in doubt; 1) [listing 2 of 2 here]	–	–	Inhibited	Inhibited	Inhibited
